Results from patent publication US8338039B2, “Fuel cell” (Sony Corporation, priority 2009, dated 2012).

What was measured:
[1] = system: anode having the enzyme catalyst (glucose dehydrogenase, diaphorase); experiment: Current generated by the enzyme-catalyst anode of the fuel cell with additive in the fuel solution; assay type: biochemical
Protocol: Tests were conducted under the following conditions to investigate how the plant essential oil added to the fuel solution affects the fuel cell performance. The plant essential oils used for the test are nutmeg oil, lemongrass oil, and palmarosa oil. The concentration of each plant essential oil in the fuel solution is 1%. The control substance is N,N-diethyl-m-toluamide (DEET), which is an active ingredient used for most insect repellent sprays. The concentration of DEET in the fuel solution is 1%. Incidentally, the concentration of DEET in the formulation is required to be less than 12% according to the Japanese regulation. The fuel solution is a pH buffer solution composed of 2.0 M imidazole/H2SO4, 0.4 M glucose, and ethanol, pH 7.0. […] The plant essential oil is added to the fuel solution and suspended therein by stirring immediately before current measurement. The electrode is one which is made of carbon fiber (1 mm thick). The electrode is coated with an immobilizing agent which is composed of the following ingredients. A mixture of 1.0 PLL and 0.0625 glutaraldehyde, 75.2 μL A solution of glucose dehydrogenase (150 mg/mL), 12.4 μL A solution of diaphorase (150 mg/mL), 1.6 μL A solution of NADH (40.96 mg/mL), 4 μL A solution of AQ2S (60 mM), 37.4 μL An enzyme produced by Amano Enzyme Co., Ltd. is immobilized on the above-mentioned immobilizing agent. […]

[2] = Dissolution of additive in the fuel solution; assay type: physicochemical; settings: fuel solution containing 1% ethanol; 1% DEET
Protocol: The fuel solution is a pH buffer solution composed of 2.0 M imidazole/H2SO4, 0.4 M glucose, and ethanol, pH 7.0. […] The plant essential oil is added to the fuel solution and suspended therein by stirring immediately before current measurement.

solubility in the fuel solution [2]: dissolves 1% DEET completely
SMILES: CCN(CC)C(=O)c1cccc(C)c1 [DEET, N,N-diethyl-m-toluamide]
current value produced by the enzymatic catalyst at the anode, compared with fuel solution not incorporated with the additive ([1]; 1% additive in fuel solution (2.0 M imidazole/H2SO4, 0.4 M glucose, ethanol, pH 7.0), carbon fiber anode): lower current value
effect on the fuel cell performance ([1]; added to the fuel solution at 1%): deteriorates the fuel cell performance
